The results in this text go back to article PMC8831520, “Small molecule SWELL1 complex induction improves glycemic control and nonalcoholic fatty liver disease in murine Type 2 diabetes” (Nature Communications, 2022).

“Also recorded” adds a separate entry of the source. Bounds are passed on as bounds.

One assay has as its system HFD-T2D mice. Put plainly: NAFLD in HFD-fed mice: liver triglycerides, histology, NAS. It counts as in vivo, mouse. The method, then: Gross liver weights were measured and identical sections from the right medial lobe of the liver were dissected for further examinations. Total triglyceride content was determined by homogenization of 10–50 mg of tissue in 1.5 ml of chloroform:methanol (2:1 v/v) followed by centrifugation at 16,260×g for 10 min at 4 °C. A 20 µl of the supernatant was evaporated in a 1.5 ml microcentrifuge tube for 30 min. Triglyceride content was determined by adding 100 µl of Infinity Triglyceride Reagent (Fisher Scientific) to the dried sample followed by 30 min incubation at RT. The samples were then transferred to a 96-well plate along with standards (0–2000 mg/dl) and absorbance was measured at 540 nm and the final concentration was determined by normalizing to tissue weight. For histological examination, liver sections were fixed in 10% zinc formalin and paraffin-embedded for sectioning. Hematoxylin and eosin (H&E) stained sections were then assessed for steatosis grade, lobular inflammation, and hepatocyte ballooning for nonalcoholic fatty liver disease (NAFLD) scoring[46],[95],[96].

A further assay deals with eWAT adipocytes. Nature of the assay: Adipocyte size in eWAT of treated mice. To be noted: 5 days, vs vehicle. It counts as in vivo, mouse. The method, then:
Mice epididymal white adipose tissue (eWAT) was isolated and fixed in 10% neutral buffer formalin for 24 h at 4 °C. The formalin-fixed eWAT tissue was washed twice with 1XPBS buffer and dehydrated in a series of ethanol gradient. The dehydrated tissue was embedded in paraffin wax and 10 μm sections were cut by automated microtome and mounted on positively charged slides. Hematoxylin and eosin staining of the slides was performed at the Musculoskeletal Research Center, Washington University in St. Louis. Images were captured by Zeiss Axioscop with 10X objective and analyzed by ImageJ software. Measurement of adipocyte area was performed using the polygon selection tool of ImageJ. All quantifications were performed by blinded independent observers.

The test system of assay [1] is T1, SWELL1 protein in 3T3-F442A preadipocytes.
T1 construct: host or cells: 3T3-F442A preadipocytes and differentiated adipocytes (wild type)
Nature of the assay: SWELL1 protein western blot in preadipocytes. It counts as cell-based, murine. To be noted: 10 µM, 96 h. The method, then:
In the case of 3T3-F442A adipocytes, the WT and KO cells were treated with either vehicle (DMSO), 1 or 10 µM SN-40X (after 7–11 days of differentiation) for 96 h and then stimulated with 0 and 10 nM insulin/serum-containing media with vehicle (DMSO) or SN-40X for 15 min for SWELL1 detection. […] To simulate glucolipotoxicity, 8 mM sodium palmitate was dissolved in 18.4% fatty-acid free BSA at 37 °C in DMEM medium with 25 mM glucose to obtain a conjugation ratio of 1:3 palmitate:BSA[80].
Adipocytes were washed twice in ice-cold phosphate buffer saline and lysed in RIPA buffer (150 mM NaCl, 20 mM HEPES, 1% NP-40, 5 mM EDTA, pH 7.4) with proteinase/phosphatase inhibitors (Roche). The cell lysate was further sonicated in 10 s cycle intervals 2–3 times and centrifuged at 18,407×g for 30 min at 4 °C and repeated one more time to remove the excess fat. The supernatant was collected and further estimated for protein concentration using a DC protein assay kit (Bio-Rad). Fat and liver tissues were homogenized and suspended in RIPA buffer with inhibitors and further processed in a similar fashion as described above. HUVECs were also prepared in a similar fashion except the lysates were spun only once to remove the cells debris to obtain the clear supernatant. […] The images were further analyzed for band intensities using ImageJ software. […]

Assay [2] concerns SWELL1/LRRC8a-e mRNA in 3T3-F442A cells. Nature of the assay: qRT-PCR of LRRC8 family mRNA. Type of assay: cell-based, murine. Particulars: 10 µM, 96 h. The method, then:
RNA samples were isolated using the PureLink RNA kit (Life Technologies) as per the manufacturer’s instructions. Complementary DNA (cDNA) synthesis was carried out using an iScript Reverse Transcriptase kit (Bio-Rad). […] Each sample measurement was carried out in triplicate. GAPDH was used as the internal standard and the fold change was calculated relative to GAPDH was normalized to vehicle group. The following qRT-PCR primers (5′ to 3′) were used: GAPDH forward—[…] and reverse— […]; SWELL1 forward—[…] and reverse— […]; LRRC8b forward—[…] and reverse— […]; LRRC8c forward—[…] and reverse—[…]; LRRC8d forward—[…] and reverse— […]; LRRC8e forward—[…] and reverse— […], respectively.
(In general: In qPCR the cycle at which signal appears reflects the starting amount.)

For `CCCCC1(C2CCCC2)Cc2cc(OCCCC(=O)O)c(Cl)c(Cl)c2C1=O` (centres unmarked) [SN-401, 4-((2-butyl-6,7-dichloro-2-cyclopentyl-1-oxo-2,3-dihydro-1H-inden-5-yl)oxy)butanoic acid], the “reduction in body weight compared to vehicle” value in the assay with HFD-T2D mice (16 weeks HFD then intermittent dosing over 5 weeks) was determined as 14%. Further, the “improvement of NAFLD-activity score (NAS)” value with HFD-T2D mice (16 weeks HFD then intermittent dosing over 5 weeks, vs vehicle) was above 2 points. Moreover, in the assay on HFD-T2D mice (histologic evaluation, vs vehicle), the “hepatic steatosis and hepatocyte damage” value is listed as “significant reductions”. The hepatic triglyceride concentrations result in the assay on HFD-T2D mice (vs vehicle) was “lower”. For the same molecule, the adipocyte size entry in the assay on eWAT adipocytes (HFD-fed mice) is listed as “unchanged; also recorded: no significant differences”. Besides, in the assay with eWAT adipocytes (KKAy mice), the adipocyte size reduction is reported as 9%. In addition, the SWELL1 protein expression entry in assay [1] is on record as “threefold”. Also, the “SWELL1 and LRRC8b-e mRNA” value in assay [2] is reported as “not associated with increases in SWELL1 mRNA”.
